Reference: PubChem BioAssay AID2305 (GlaxoSmithKline (GSK), 2010)

These compounds were tested on P. falciparum 3D7 growth, pLDH absorbance (assay: P. falciparum 3D7 growth inhibition, dose response, strain 3D7 (AID 2305)).

Structure (SMILES) | IC50
CC(=O)Nc1ccc(CN(Cc2cccc(OC(C)(C)C)c2)Cc2ccc3c(c2)OCCO3)cc1 | 140 nM
O=C(n1c(-c2cc3ccccc3n2C(=O)C(F)(F)F)cc2ccccc21)C(F)(F)F | 880 nM
Cc1ncccc1C(=O)Nc1cccc(-c2cccc(-c3nc4c(C)cccc4[nH]3)c2)c1 | 960 nM
CN(C)S(=O)(=O)c1ccc(C(=O)N(c2nc(-c3ccccc3)cs2)C2CCCCC2)cc1 | 760 nM
CS(=O)(=O)NCCCNCc1ccc(-c2ccc(-c3nc4ccc(F)cc4[nH]3)s2)cc1 | 810 nM
Cc1nc2ccc(S(=O)(=O)Nc3ccc(C(=O)N[C@@H](CCC(=O)O)C(=O)O)cc3)cc2c(=O)[nH]1 | 1010 nM
O=C(/C=C/c1ccc(Cl)c(Cl)c1)NCCC1CCC(N2CCC(c3c[nH]c4ccc(O)cc34)CC2)CC1 (configuration not stated) | 760 nM
c1ccc2c(NCCCCCCNc3c4ccccc4nc4ccccc34)c3ccccc3nc2c1 | 750 nM
CN1CCC(C(=O)N(Cc2ccc(-c3ccc(CNCCc4ccc(S(C)(=O)=O)cc4)cn3)cc2)Cc2cccc(F)c2)CC1 | 710 nM
C(=NNc1cc(-c2ccccc2)nc2ccccc12)c1cccnc1 | 1230 nM
CCCNCc1ccc(-c2ccc(CN(Cc3cnc(C)cn3)C(=O)c3nn(-c4ccccc4)nc3C)cc2)nc1 | 420 nM
O=C(Cn1c(CCc2cccc(F)c2F)nc(=O)c2ccccc21)N(Cc1ccc(-c2ccc(C(F)(F)F)cc2)cc1)C1CCN(C2CCOCC2)CC1 | 740 nM
Cc1cc(OCCCn2ccnc2)ccc1-c1csc(NC(N)=NCc2ccccc2)n1 | 880 nM
c1cc2nc(CCCCc3nc4ccc(C5=N[C@H]6CCCC[C@H]6N5)cc4[nH]3)[nH]c2cc1C1=N[C@H]2CCCC[C@H]2N1 | 410 nM
COc1cc(NC(=O)c2sc(-c3ccc(Cl)cc3)cc2NC(=O)CN2CCCC2)ccc1OCCN1CCCC1 | 930 nM
CC(ON1C(N)=NC(N)=NC1(C)C)c1ccccc1 (configuration not stated) | 10 nM
CCN(CC)S(=O)(=O)c1ccc(C(=O)Oc2ccccc2N(Cc2ccc(OC)cc2)C2=NS(=O)(=O)c3ccccc32)cc1 | 580 nM
COc1cc2c(cc1C=CC(=O)N1CCN(Cc3nc4sc(C)c(C)c4c(=O)[nH]3)CC1)OC(C)C2 (configuration not stated) | 1020 nM
C[C@H]1CN(Cc2cccc(-c3cc(CNC(=O)c4cccc(CN5CCN(C/C=C/c6ccccc6)CC5)c4)ccc3F)c2)CCN1 | 850 nM
CCCCNc1nccc2ccc(-c3ccncc3)cc12 | 770 nM
COc1cc(Nc2ccnc3ccc(C(F)(F)F)cc23)ccc1OCCCc1ccccc1 | 770 nM
CCCOc1ccc(NC(=O)c2cccs2)cc1Cl | 860 nM
O=C(NC1CCCC1)c1cc2c(=O)n3ccccc3nc2nc1NCCc1ccccc1 | 650 nM

Structure (SMILES) | IC50
FC(F)(F)c1ccc(CSc2ccc3nnc(-c4ccccn4)n3n2)cc1 | 820 nM
O[C@@H](c1ccccc1)[C@@H]1CN(CCc2ccccc2)CC[C@@]1(O)c1ccccc1 | 1040 nM
CCc1c(CCNCCCCCNCCc2ccc(OC)c(OC)c2CC)ccc(OC)c1OC | 1110 nM
O=C(CSc1nc(-c2ccccc2Cl)ns1)Nc1cccc(F)c1 | 1110 nM
CNC(=O)Cc1ccc(C(=O)Nc2cccc(-c3ccc(-c4nc5c(C)cccc5[nH]4)s3)c2)cc1 | 630 nM
CCNc1cc(C(=O)N[C@@H](Cc2ccccc2)[C@H](O)CNC2CCC(C(C)(C)C)CC2)cc(N2CCCC2=O)c1 (some centres not stated) | 440 nM
O=C(/C=C/c1cc(F)cc(C(F)(F)F)c1)N1CCC(CN2CCC(c3c[nH]c4ccccc34)CC2)CC1 | 760 nM
C[C@@H]([C@@H](CCCc1ccc(Cl)cc1)C(=O)N[C@H](C(=O)Nc1cccnc1)C(C)(C)C)N(O)C=O | 720 nM
O=c1c2ccccc2nc(C=Cc2ccc([N+](=O)[O-])cc2)n1-c1ccccn1 | 380 nM
CC(C)(C)c1ccc(C(=O)Nc2ccc3nc4c(c(N)c3c2)CCCC4)cc1 | 170 nM
Cc1ccoc1C(=O)Nc1cccc(-c2cccc(-c3nc4ccc(C(F)(F)F)cc4[nH]3)c2)c1 | 610 nM
c1ccc(CN2CCc3cc4nccc(N5CCNCC5)c4cc32)cc1 | 400 nM
Cc1cccnc1CNc1nccc2c(C)c(C)[nH]c12 | 850 nM
Cc1cc(NN=Cc2cccc([N+](=O)[O-])c2)c2ccc(F)cc2n1 | 690 nM
CC(C)NCc1cccc(-c2ccc(NS(=O)(=O)c3cccc4cccnc34)cc2)c1 | 1080 nM
CC(C)(C)c1ccc(NC(=O)c2cccc(CN3CCCN(Cc4cccc(C#N)c4)CC3)c2)cc1 | 760 nM
CN(c1ccc(NC(=O)c2ccc(F)cc2)cc1)C1CCN(Cc2cccc(F)c2)C1 (configuration not stated) | 1410 nM
O=C(/C=C/c1ccc(Cl)c(Cl)c1)NC1CCC(CN2CCC(Cc3cc4ccccc4[nH]3)CC2)CC1 (configuration not stated) | 510 nM
CCOC(=O)c1c(CCc2ccc(C(F)(F)F)cc2)nc2c(c1-c1ccc(C(=O)N[C@@H](C)c3ccncc3)cc1)C(=O)N1CCC[C@@H]21 | 920 nM
Cc1cc(NN=Cc2cccc(Cl)c2)c2ccccc2n1 | 260 nM
NC1CCN(c2cnn(Cc3cccc(NC(=O)Nc4ccc(-c5ccccc5)cc4)c3)c(=O)c2Cl)CC1 | 1140 nM
CCc1cn2c3c(cc(C(=O)N[C@@H](Cc4cccc(Cl)c4)[C@H](O)CNC4CC4)cc13)N(C)S(=O)(=O)CC2 | 150 nM
CCCNC(=O)C1Cc2cc(OC)c(OC)cc2C2(N1)C(=O)N(Cc1cccc(OC)c1)c1ccccc12 (configuration not stated) | 860 nM

Structure (SMILES) | IC50
O=C(/C=C/c1ccc(-c2nc3ccc(Cl)cc3[nH]2)cc1)NCc1cccc(F)c1 | 640 nM
O=C(Nc1cccc(-c2nn3ccccc3c2-c2ccnc(Nc3cccc(C(F)(F)F)c3)n2)c1)c1c(F)cccc1F | 630 nM
CC(=O)c1sc(NC(=O)Nc2ccc(C)cc2C)nc1C | 910 nM
COc1ccc2nccc([C@@H](O)CN3CCC(NC(=O)C(c4cc5ccccc5o4)N4CCC(Cc5ccccc5)CC4)CC3)c2c1 (some centres not stated) | 250 nM
Nc1cc(-c2cccc(Cl)c2)nn1-c1ccnc2cc(Cl)ccc12 | 750 nM
CCCC(C)NC(=O)c1cnn(-c2ccc(C(C)(C)C)cc2)c1OCc1ccc(Br)cc1 (configuration not stated) | 1060 nM
O=C(Nc1ccc(Cl)cc1)Nc1cccc(CCNCc2ccccc2)c1 | 730 nM
CC(C)CCNc1nc2ccccc2nc1Nc1cccc(C(F)(F)F)c1 | 910 nM
Clc1ccc(OC2CCC(Cn3ccnc3)(c3ccc(Cl)cc3Cl)CC2)c(Cl)c1 (configuration not stated) | 800 nM
O=C(NCCCCN1CCC(c2ccc3c(c2OC(=O)c2ccc(NC(=O)c4ccc(Cl)cc4)cc2)CCCC3)CC1)c1ccc(NC(=O)c2ccc(Cl)cc2)cc1 | 200 nM
Clc1ccc(CNc2nc(NCCc3cnc[nH]3)nc(NC3CCCCC3)n2)cc1 | 210 nM
O=C(NCCCN1CCN(c2cccc(Cl)c2)CC1)c1ccc(-c2nc3cc(Cl)c(Cl)cc3[nH]2)c(F)c1 | 830 nM
O=C(NC1CCC(CN2CCC(c3c[nH]c4ccccc34)CC2)CC1)c1cc2ccccc2s1 (configuration not stated) | 730 nM
CN1CCC(N2CCN(Cc3ccc(-c4cccc(-c5nc6ccccc6[nH]5)c4)cc3)CC2)CC1 | 140 nM
O=C(/C=C/c1cccc2c1OCO2)Nc1ccnc2ccncc12 | 900 nM
Cc1cc(NN=Cc2ccccc2)c2cc(F)ccc2n1 | 580 nM
COc1cccc(CNC(=O)c2cc(CNCc3ccccc3)ccc2-c2cccc(CNCc3ccc(-c4ccccc4)cc3)c2)c1 | 850 nM
Oc1ccc(-c2cc(COc3ccccc3C(F)(F)F)c(C3=CCNCC3)cc2COc2ccccc2C(F)(F)F)cc1 | 780 nM
Cc1cc(-c2cc(Cl)ccc2Cl)no1 | 170 nM
O=C(Nc1ccc(OC(F)(F)F)cc1)NC1CCN(c2ccnc3ccccc23)C1 (configuration not stated) | 240 nM
Cc1oc(-c2ccc(Cl)cc2)cc1C(=O)NCCC1CCN(CCCCCNC(=O)/C=C/c2ccc(Cl)c(Cl)c2)CC1 | 450 nM
